SMILES strings stand for the structures. Read-outs that look alike come from different tables or passages of the source.

One assay deals with SR (leukemia). The experiment in a line: NCI-60 single dose screen, SR. Format: cell-based. The settings on record: Homo sapiens, read-out: percent growth inhibition.
For a further assay, the system named is IGROV1 (ovarian cancer). The experiment in a line: NCI-60 single dose screen, IGROV1. Type of assay: cell-based. The settings on record: Homo sapiens, IGROV-1, read-out: percent growth inhibition.
The next assay relates to DU-145 (prostate cancer). Put plainly: NCI-60 single dose screen, DU-145. Type of assay: cell-based. Conditions: Homo sapiens, DU-145, read-out: percent growth inhibition.
Another assay has as its system LOX IMVI (melanoma). Put plainly: NCI-60 single dose screen, LOX IMVI. Conditions: Homo sapiens, read-out: percent growth inhibition. Format: cell-based.
Another assay has as its system MCF-7 cells. Put plainly: Annexin V-FITC apoptosis assay, MCF-7. Type of assay: cell-based, human. Conditions: MCF-7 cells exposed to IC50, 24 h; for percentage of annexin V-FITC positive apoptotic cells (UR + LR): vehicle control 2.0%.
For the next assay, the system named is MCF7 (breast cancer). Put plainly: NCI-60 single dose screen, MCF7. The settings on record: Homo sapiens, MCF7, read-out: percent growth inhibition. Type of assay: cell-based.
A further assay relates to full NCI 60-cell panel. The experiment in a line: NCI-60 single dose screen, statements over several cell lines. Format: cell-based, human. The settings on record: for inhibition at 10 µM: Homo sapiens.
For another assay, the system named is DU-145 cell lines. The experiment in a line: DNA-flow cytometry cell cycle analysis, DU-145. Format: cell-based, human. Conditions: DU-145, 24 h at IC50. (A flow cytometer gives signals particle by particle.)
Another assay deals with DU-145 cells. The experiment in a line: Annexin V-FITC apoptosis assay, DU-145. Format: cell-based, human. The settings on record: DU-145 cells exposed to IC50, 24 h; for percent of annexin V-FITC positive apoptotic cells (UR + LR): vehicle control 1.7%.
Another assay deals with MCF7 cell lines. The experiment in a line: DNA-flow cytometry cell cycle analysis, MCF7. Type of assay: cell-based, human. The settings on record: MCF7, 24 h at IC50.
In assay [1] the test system is NCI-H522 (non-small cell lung cancer). Put plainly: NCI-60 single dose screen, NCI-H522. The settings on record: Homo sapiens, NCI-H522, read-out: inhibitory activity (cell growth inhibition). Format: cell-based.
The subject of assay [2] is MCF-7 breast cancer cell line. The experiment in a line: MTT assay for cell viability, MCF7. Type of assay: cell-based. The settings on record: Homo sapiens, MCF7, read-out: Cytotoxicity IC50 (µM ± SE) MCF7, MTT assay, MCF7. In general terms: Tetrazolium dyes change colour on reduction, which living cells bring about.
The mark [3] stands for this setting: 60 cell, read-out: cell growth inhibition.

Broadly, the inhibition is the percentage by which the read-out fell short of the control. As for `Cc1cc(=O)[nH]c(=O)n1Cc1cn(-c2c3ccccc3nc3ccccc23)nn1` [Compound 8, 1-((1-(Acridin-9-yl)-1H-1,2,3-triazol-4-yl)methyl)-6-methylpyrimidine-2,4(1H,3H)-dione], the inhibition at 10 µM with SR (leukemia) is 88.6%; in the assay on IGROV1 (ovarian cancer) it was 67%; in the assay on DU-145 (prostate cancer), 84.3%; in the assay with LOX IMVI (melanoma), 84.8%; in the assay on MCF7 (breast cancer), 97.5%; with full NCI 60-cell panel (setting [3]) it was 61 to 97%. Moreover, the “increase of annexin V-FITC positive apoptotic cells compared with vehicle control” value (from here on “increase”) in the assay on MCF-7 cells is recorded as 10 fold. In the assay on MCF-7 cells, the “percentage of annexin V-FITC positive apoptotic cells (UR + LR)” value (shortened to “percentage”) came to 20.3%. Further, the “%G1” value in the assay on DU-145 cell lines came to 34.6%; in the assay with MCF7 cell lines, 24.4%. Besides, the “%G2/M” value in the assay with DU-145 cell lines came to 39.6%; in the assay on MCF7 cell lines, 48.3%. Further, the figures for the “%Pre-G1” value with DU-145 cell lines and in the assay with MCF7 cell lines were 12.9% and 24.4%, respectively. Also, the “rise of annexin V-FITC positive apoptotic cells compared with vehicle control” value in the assay with DU-145 cells was “sixfold”. Besides, the “percent of annexin V-FITC positive apoptotic cells (UR + LR)” value in the assay with DU-145 cells came to 10.2%.

On to `O=c1ccn(Cc2cn(-c3c4ccccc4nc4ccccc34)nn2)c(=O)[nH]1` [Compound 9, 1-((1-(Acridin-9-yl)-1H-1,2,3-triazol-4-yl)methyl)pyrimidine-2,4(1H,3H)–dione], for which, in the assay on MCF-7 cells, the “increase” value is 6.4 fold and the “percentage” value worked out at 13%. In addition, in the assay on full NCI 60-cell panel (setting [3]), the inhibition at 10 µM was in the range of 61 to 97%. Further, the inhibition at 10 µM in the assay on full NCI 60-cell panel (read-out: cell growth inhibition) lay within 61.3 to 67%. In the assay on DU-145 cell lines, the “%G1” value amounted to 41.5% and the “%G2/M” value is given as 29.1%. The “%G2/M” value in the assay with MCF7 cell lines worked out at 39.8%.

As for `O=C1NC(c2ccccc2)(c2ccccc2)C(=O)N1Cc1cn(-c2c3ccccc3nc3ccccc23)nn1` [Compound 10, 3-((1-(Acridin-9-yl)-1H-1,2,3-triazol-4-yl)methyl)-5,5-diphenylimidazolidine-2,4-dione], in the assay on MCF-7 cells, the “increase” value was determined as 5.3 fold and the “percentage” value stood at 10.7%. Moreover, in the assay on full NCI 60-cell panel (setting [3]), the inhibition at 10 µM was 61 to 97%. Besides, the inhibition at 10 µM in the assay with full NCI 60-cell panel (read-out: cell growth inhibition percent) is 60.8 to 68.6%. Further, in [1], the inhibition at 10 µM was 84.1%. Further, in the assay on DU-145 cell lines, the “%G1” value was determined as 42.9% and the “%G2/M” value is given as 20.9%. Also, in the assay with DU-145 cells, the “rise of annexin V-FITC positive apoptotic cells compared with vehicle control” value was found to be 2 fold and the “percent of annexin V-FITC positive apoptotic cells (UR + LR)” value was 3.6%. Further, in the assay with MCF7 cell lines, the “%G1” value was 43.5%, the “%G2/M” value is reported as 15.3% and the “%Pre-G1” value amounted to 13.2%.

With `CCCC(CCC)C(=O)OCc1cn(-c2c3ccccc3nc3ccccc23)nn1` [Compound 12, 1-(1-(Acridin-9-yl)-1H-1,2,3-triazol-4-yl)methyl valproate], the “cell growth inhibition (in words)” value in the assay with full NCI 60-cell panel (against all cancer cell lines, single dose of 10 μM) is listed as “either low or complete absence of cell growth inhibition”.

Broadly, the IC50 is the concentration that gives 50% inhibition. As to `COc1cccc2c1C(=O)c1c(O)c3c(c(O)c1C2=O)C[C@@](O)(C(=O)CO)C[C@@H]3O[C@H]1C[C@H](N)[C@H](O)[C@H](C)O1` [Doxorubicin], the IC50 in assay [2] stood at 2 µM.

The record behind these values is paper PMC8757608 (Journal of Enzyme Inhibition and Medicinal Chemistry, 2022).
